# Test results from patent US20090306221A1, “Use for Cannabinoid” (GW PHARMA LIMITED, priority 2006, published 2009).
# Target: human cannabinoid CB2 receptors (Homo sapiens, UniProt P34972)
# Experiment: [35S]GTPγS binding assay, hCB2-transfected CHO cell membranes
# Conditions: stimulation of [35S]GTPγS binding
# Procedure: CHO cells were stably transfected with cDNA encoding human cannabinoid CB2 receptors and were maintained at 37° C. and 5% CO2 in Dulbecco's Modified Eagle's Medium nutrient mixture.
# The assays were carried out with GTPγS binding buffer (50 mM Tris-HCl; 50 mM Tris-Base; 5 mM MgCl2; 1 mM EDTA; 100 mM NaCl; 1 mM DTT; 0.1% BSA) in the presence of [^35S]GTPγS and GDP, in a final volume of 500 μl. Binding was initiated by the addition of [^35S]GTPγS to the tubes. The drugs were incubated in the assay for 60 min at 30° C. The reaction was terminated by a rapid vacuum filtration method using Tris buffer (50 mM Tris-HCl; 50 mM Tris-Base; 0.1% BSA), as described previously, and the radioactivity was quantified by liquid scintillation spectrometry.
# The agonism of the CB1 or CB2 receptors by CP55940 results in a response in the cell. This response is the binding of [^35S]GTPγS to the cell membrane.
# Changes in the response in the presence of the test compound can be measured in order to determine whether the compound is acting as an agonist, a neutral antagonist or an inverse agonist.
# Chain of human cannabinoid CB2 receptors (P34972 whole entry): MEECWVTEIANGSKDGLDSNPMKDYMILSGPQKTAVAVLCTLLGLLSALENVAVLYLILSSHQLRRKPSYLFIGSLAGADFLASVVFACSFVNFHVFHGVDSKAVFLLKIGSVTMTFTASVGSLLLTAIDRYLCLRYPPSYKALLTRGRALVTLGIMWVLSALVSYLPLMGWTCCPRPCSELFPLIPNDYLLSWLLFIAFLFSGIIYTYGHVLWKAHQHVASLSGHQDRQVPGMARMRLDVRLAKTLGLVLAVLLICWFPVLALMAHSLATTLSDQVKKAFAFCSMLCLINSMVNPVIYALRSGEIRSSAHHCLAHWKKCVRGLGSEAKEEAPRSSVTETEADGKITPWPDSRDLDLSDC
substance,measurement,value
SR144528,shift in the log-concentration response curve of CP55940,downward and rightward shift
